Data reported in PubChem BioAssay AID1259411 (Chemical Carcinogenesis Research Information System (CCRIS), 2018).
Active and inactive are the calls of the source. No rule for the calls is given here.

System: rodent carcinogenicity bioassays, tumor incidence
Test: CCRIS carcinogenicity studies
In short: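 Archive of carcinogenicity, mutagenicity, tumor promotion and tumor inhibition results drawn from journals, NCI reports and other sources, expert-reviewed; covers 1985-2011 and is no longer updated.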

Measured: carcinogen call

O=C1[C@H]2CC=CC[C@H]2C(=O)N1SC(Cl)(Cl)Cl
active: Species: MOUSE, Strain/Sex: B6C3F1/MALE, Route: ORAL, Dose: 0, 8000, 16000 PPM IN DIET, Dose: 0, 8000, 16000 PPM IN DIET, Tumor Site: Type of Lesion: DUODENUM: ADENOMATOUS POLYP (NOS) OR ADENOCARCINOMA IN ADENOMATOUS POLYP active; positive | Species: Mouse, Strain/Sex: Swiss CD-1/Male (80/dose), Route: Oral, Dose: 0, 2000/6000, 6000/10,000, 10,000/16,000 ppm in diet for 113 wk (lower dose first 4 wk, higher dose for remainder of stu, Dose: 0, 2000/6000, 6000/10,000, 10,000/16,000 ppm in diet for 113 wk (lower dose first 4 wk, higher dose for remainder of stu, Tumor Site: Type of Lesion: INTESTINE: Adenomas and adenocarcinomas in jejunum active; positive (10,000 ppm group) (purity of 90.7%; study details n ot given in source | Species: Rat, Strain/Sex: CD/Male (50/group), Route: Oral, Dose: 0, 25, 100, 250 mg/kg/day in diet for 2 yr, Dose: 0, 25, 100, 250 mg/kg/day in diet for 2 yr, Tumor Site: Type of Lesion: KIDNEY: Renal tubular adenomas or carcinomas (1, 1, 3, 4) active; positive (purity of 89%; study details not given in source)
inactive: Species: MOUSE, Strain/Sex: SWISS/FEMALE, Route: DERMAL, Dose: 0, 450 UG IN 200 µL DMSO 3/WK FOR 52 WK (STUDY DURATION: 52 WK) inactive; negative | Species: Mouse, Strain/Sex: Swiss CD-1/Female (80/dose), Route: Oral, Dose: 0, 2000/6000, 6000/10,000, 10,000/16,000 ppm in diet for 113 wk (lower dose first 4 wk, higher dose for remainder of stu, Dose: 0, 2000/6000, 6000/10,000, 10,000/16,000 ppm in diet for 113 wk (lower dose first 4 wk, higher dose for remainder of stu inactive; negative (purity of 90.7%; study details not given in source) | Species: RAT, Strain/Sex: OSBORNE-MENDEL/FEMALE, Route: ORAL, Dose: 0, 2525, 6060 PPM IN DIET, TWA, Dose: 0, 2525, 6060 PPM IN DIET, TWA inactive; negative | Species: RAT, Strain/Sex: OSBORNE-MENDEL/MALE, Route: ORAL, Dose: 0, 2525, 6060 PPM IN DIET, TWA, Dose: 0, 2525, 6060 PPM IN DIET, TWA inactive; negative | Species: Rat, Strain/Sex: CD/Female (50/group), Route: Oral, Dose: 0, 25, 100, 250 mg/kg/day in diet for 2 yr, Dose: 0, 25, 100, 250 mg/kg/day in diet for 2 yr inactive; negative (purity of 89%; study details not given in source)

C=CC(=O)O
inactive: Species: MOUSE, Strain/Sex: C3H/MALE, Route: DERMAL, Dose: 0, 0.20 MG IN 25 µL ACETONE 3/WK FOR LIFESPAN (STUDY DURATION: LIFESPAN) inactive; negative | Species: RAT, Strain/Sex: WISTAR/FEMALE, Route: ORAL, Dose: 0, 120, 400, 1200 PPM IN DRINKING WATER FOR 28 MO (STUDY DURATION: 28 MO), Dose: 0, 120, 400, 1200 PPM IN DRINKING WATER FOR 28 MO (STUDY DURATION: 28 MO) inactive; negative | Species: RAT, Strain/Sex: WISTAR/MALE, Route: ORAL, Dose: 0, 120, 400, 1200 PPM IN DRINKING WATER FOR 26 MO (STUDY DURATION: 26 MO), Dose: 0, 120, 400, 1200 PPM IN DRINKING WATER FOR 26 MO (STUDY DURATION: 26 MO) inactive; negative

Nc1cc2c3ccccc3ccc2c2ccccc12
inactive: Species: MOUSE, Strain/Sex: SWISS/FEMALE, Route: INTRAPERITONEAL, Dose: 0, 100 NMOL (TOTAL DOSE) 1/7, 2/7 AND 4/7 ADMINISTERED ON DAYS 1, 8 AND 15 OF LIFE RESPECTIVELY (STUDY DURATION: 32 WK) inactive; negative | Species: MOUSE, Strain/Sex: SWISS/MALE, Route: INTRAPERITONEAL, Dose: 0, 100 NMOL (TOTAL DOSE) 1/7, 2/7 AND 4/7 ADMINISTERED ON DAYS 1, 8 AND 15 OF LIFE RESPECTIVELY (STUDY DURATION: 32 WK) inactive; negative

CCOP(=S)(OCC)SCCSCC
inactive: Species: Mouse, Strain/Sex: CD/Female (60/Group with 10 used as replacements), Route: Oral, Dose: 0, 1, 4, 16 ppm 98.2% disulfoton in diet for 99 wks, study duration 99 wks, Dose: 0, 1, 4, 16 ppm 98.2% disulfoton in diet for 99 wks, study duration 99 wks inactive; negative | Species: Mouse, Strain/Sex: CD/Male (60/Group with 10 used as replacements), Route: Oral, Dose: 0, 1, 4, 16 ppm 98.2% disulfoton in diet for 99 wks, study duration 99 wks, Dose: 0, 1, 4, 16 ppm 98.2% disulfoton in diet for 99 wks, study duration 99 wks inactive; negative | Species: Rat, Strain/Sex: F344/Female (50/Group), Route: Oral, Dose: 0, 1, 4, 16 ppm 97.6% disulfoton in diet for 105 wks, study duration 105 wks, Dose: 0, 1, 4, 16 ppm 97.6% disulfoton in diet for 105 wks, study duration 105 wks inactive; negative | Species: Rat, Strain/Sex: F344/Male (50/Group), Route: Oral, Dose: 0, 1, 4, 16 ppm 97.6% disulfoton in diet for 105 wks, study duration 105 wks, Dose: 0, 1, 4, 16 ppm 97.6% disulfoton in diet for 105 wks, study duration 105 wks inactive; negative

CC(=O)CN(C)N=O
active: Species: HAMSTER, Strain/Sex: SYRIAN/FEMALE, Route: GAVAGE, Dose: 0, 0.5 MG IN 0.1 ML WATER 2/WK FOR 22 WK FOR A TOTAL DOSE OF 22 MG (STUDY DURATION: 45 WK), Tumor Site: Type of Lesion: LIVER: HEMANGIOSARCOMA, CHOLANGIOCELLULAR CARCINOMA, CHOLANGIOCELLULAR ADENOMA, NASAL MUCOSA: CARCINOMA active; positive | Species: HAMSTER, Strain/Sex: SYRIAN/FEMALE, Route: GAVAGE, Dose: 0, 1 MG IN 0.1 ML WATER 2/WK FOR 11 WK FOR A TOTAL DOSE OF 22 MG (STUDY DURATION: 45 WK), Tumor Site: Type of Lesion: LIVER: TUMOR, NASAL MUCOSA: CARCINOMA active; positive | Species: HAMSTER, Strain/Sex: SYRIAN/FEMALE, Route: GAVAGE, Dose: 0, 2 MG IN 0.2 ML WATER 1/WK FOR 14 WK FOR A TOTAL DOSE OF 28 MG (STUDY DURATION: 17 WK), Tumor Site: Type of Lesion: LIVER: HEPATOCELLULAR ADENOMA, CHOLANGIOCELLULAR CARCINOMA OR ADENOMA, NASAL MUCOSA: CARCINOMA OR ADENOMA active; positive | Species: RAT, Strain/Sex: F344/FEMALE, Route: GAVAGE, Dose: 0, 4 MG/WK FOR A TOTAL DOSE OF 0.5 MMOL (STUDY DURATION: 40 WK), Tumor Site: Type of Lesion: ESOPHAGUS: TUMOR active; positive | Species: RAT, Strain/Sex: F344/MALE, Route: GAVAGE, Dose: 0, 2, 4, 10 MG/WK FOR A TOTAL DOSE OF 0.5, 0.5, 0.9 MMOL (STUDY DURATION: 70 WK), Dose: 0, 2, 4, 10 MG/WK FOR A TOTAL DOSE OF 0.5, 0.5, 0.9 MMOL (STUDY DURATION: 70 WK), Tumor Site: Type of Lesion: ESOPHAGUS: TUMOR active; positive

CCc1nc(N)nc(N)c1-c1ccc(Cl)cc1
inactive: Species: MOUSE, Strain/Sex: B6C3F1/FEMALE, Route: ORAL, Dose: 0, 500, 1000 PPM IN DIET, Dose: 0, 500, 1000 PPM IN DIET inactive; negative | Species: RAT, Strain/Sex: F344/FEMALE, Route: ORAL, Dose: 0, 200, 400 PPM IN DIET 5 D/WK, Dose: 0, 200, 400 PPM IN DIET 5 D/WK inactive; negative | Species: RAT, Strain/Sex: F344/MALE, Route: ORAL, Dose: 0, 200, 400 PPM IN DIET 5 D/WK, Dose: 0, 200, 400 PPM IN DIET 5 D/WK inactive; negative

O=[N+]([O-])c1cc([N+](=O)[O-])c2ccc3cccc4ccc1c2c43
active: Species: RAT, Strain/Sex: STRAIN CD/FEMALE, Route: INTRAGASTRIC, Dose: 10 UMOL IN DMSO 3/WK FOR 4 WK (TOTAL DOSE: 16 UMOL/RAT) (STUDY DURATION: 78 WK), Tumor Site: Type of Lesion: ADRENAL GLAND: CORTICAL ADENOMA, PITUITARY GLAND: CARCINOMA active; positive | Species: RAT, Strain/Sex: STRAIN CD/FEMALE, Route: INTRAPERITONEAL, Dose: 0, 10 UMOL IN DMSO 3/WK FOR 4 WK (TOTAL DOSE: 16 UMOL/RAT) (STUDY DURATION: 78 WK), Tumor Site: Type of Lesion: MAMMARY GLAND: ADENOCARCINOMA, FIBROADENOMA, ADENOMA active; positive | Species: RAT, Strain/Sex: STRAIN-CD/FEMALE, Route: SUBCUTANEOUS, Dose: 0, 6.3 UMOL (TOTAL DOSE) ADMINISTERED OVER 8 WK BEGINNING ON DAY OF BIRTH (STUDY DURATION: 67 WK), Tumor Site: Type of Lesion: INTEGUMENTARY SYSTEM: MALIGNANT FIBROUS HISTIOCYTOMA active; positive
